Tests used:
[1] = target: Type-2 angiotensin II receptor (Homo sapiens) (UniProt P50052); conditions: Compound concentration 10.0 uM
[2] = target: Histamine H1 receptor (Homo sapiens) (UniProt P35367); conditions: Compound concentration 10.0 uM
[3] = target: Mitogen-activated protein kinase 14 (Homo sapiens) (UniProt Q16539); experiment: Inhibition of Protein Serine/Threonine Kinase, MAPK14 (p38α) at 10 µM in the Eurofins-Panlabs enzyme assay (Eurofins_assay_176610); design: substrate with concentration; conditions: Compound concentration 10.0 uM
[4] = target: Melanocortin receptor 5 (Homo sapiens) (UniProt P33032); experiment: Inhibition of Melanocortin MC5 at 10 µM in the Eurofins-Panlabs radioligand binding assay (Eurofins_assay_251400); design: ligand concentration 0.035 nM; conditions: Compound concentration 10.0 uM
[5] = target: CYP3A4 (Homo sapiens, UniProt P08684); experiment: CYP450, 3A4 Eurofins-Panlabs enzyme assay; conditions: compound concentration 10 uM
[6] = target: Sodium-dependent noradrenaline transporter (Homo sapiens) (UniProt P23975); conditions: Compound concentration 10.0 uM
[7] = target: Platelet-activating factor receptor (Homo sapiens) (UniProt P25105); experiment: Inhibition of Platelet Activating Factor (PAF) at 10 µM in the Eurofins-Panlabs radioligand binding assay (Eurofins_assay_265010); conditions: Compound concentration 10.0 uM
[8] = target: Sigma intracellular receptor 2 (Homo sapiens, UniProt Q5BJF2); experiment: Inhibition of Sigma 2 at 10 µM in the Eurofins-Panlabs radioligand binding assay (Eurofins_assay_278200); design: ligand concentration 3 nM; conditions: Rattus norvegicus; Compound concentration 10.0 uM
[9] = target: B2 bradykinin receptor (Homo sapiens) (UniProt P30411); conditions: Compound concentration 10.0 uM
[10] = target: T1, 5-hydroxytryptamine receptor 3A (Homo sapiens) (UniProt P46098); experiment: Inhibition of Serotonin (5-Hydroxytryptamine) 5-HT3 at 10 µM in the Eurofins-Panlabs radioligand binding assay (Eurofins_assay_271910); design: ligand concentration 0.69 nM; conditions: Compound concentration 10.0 uM
T1 sequence (whole entry): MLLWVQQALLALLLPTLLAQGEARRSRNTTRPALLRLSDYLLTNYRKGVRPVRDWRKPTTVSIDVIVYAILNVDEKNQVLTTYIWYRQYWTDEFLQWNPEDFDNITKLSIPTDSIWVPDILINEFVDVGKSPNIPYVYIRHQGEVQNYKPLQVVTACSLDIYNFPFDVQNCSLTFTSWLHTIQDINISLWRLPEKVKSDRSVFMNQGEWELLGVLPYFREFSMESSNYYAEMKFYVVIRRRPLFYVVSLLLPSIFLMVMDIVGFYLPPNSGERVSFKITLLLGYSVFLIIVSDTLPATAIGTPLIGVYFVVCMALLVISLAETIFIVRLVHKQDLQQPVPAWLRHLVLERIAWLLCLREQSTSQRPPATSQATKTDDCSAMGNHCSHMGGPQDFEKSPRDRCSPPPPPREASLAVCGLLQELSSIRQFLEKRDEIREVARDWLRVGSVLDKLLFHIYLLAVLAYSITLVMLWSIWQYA

[11] = target: Sigma non-opioid intracellular receptor 1 (Homo sapiens) (UniProt Q99720); experiment: Sigma 1 Eurofins-Panlabs radioligand binding assay; design: ligand concentration 8 nM; conditions: Compound concentration 10.0 uM
[12] = target: Glutamate receptor 2 (Homo sapiens) (UniProt P42262); conditions: Rattus norvegicus; Compound concentration 10.0 uM
[13] = target: cGMP-specific 3',5'-cyclic phosphodiesterase (Homo sapiens) (UniProt O76074); conditions: Compound concentration 10.0 uM
[14] = target: T2, D(4) dopamine receptor (Homo sapiens) (UniProt P21917); experiment: Inhibition of Dopamine D4.2 at 10 µM in the Eurofins-Panlabs radioligand binding assay (Eurofins_assay_219900); design: ligand concentration 0.5 nM; conditions: Compound concentration 10.0 uM
T2 sequence (whole entry): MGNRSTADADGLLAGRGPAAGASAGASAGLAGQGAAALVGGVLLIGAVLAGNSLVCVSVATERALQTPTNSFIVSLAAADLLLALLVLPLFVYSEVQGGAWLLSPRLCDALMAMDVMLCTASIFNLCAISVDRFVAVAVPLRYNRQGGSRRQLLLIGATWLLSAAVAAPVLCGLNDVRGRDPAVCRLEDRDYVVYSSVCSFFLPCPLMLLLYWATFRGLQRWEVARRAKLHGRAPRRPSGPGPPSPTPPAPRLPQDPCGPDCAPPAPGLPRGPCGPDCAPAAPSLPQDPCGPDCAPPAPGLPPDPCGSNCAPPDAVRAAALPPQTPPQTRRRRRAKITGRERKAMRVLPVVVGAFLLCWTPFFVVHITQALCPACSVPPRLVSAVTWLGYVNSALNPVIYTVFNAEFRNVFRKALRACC

[15] = target: 5-hydroxytryptamine receptor 5A (Homo sapiens) (UniProt P47898); conditions: Compound concentration 10.0 uM
[16] = target: T3, Alpha-2A adrenergic receptor (Homo sapiens) (UniProt P08913); experiment: Adrenergic alpha2A Eurofins-Panlabs radioligand binding assay; design: ligand concentration 1 nM, non-specific ligand with concentration 10 µM WB-4101, incubation time 60 min, incubation temperature 25 °C; conditions: Compound concentration 10.0 uM
T3 sequence (whole entry): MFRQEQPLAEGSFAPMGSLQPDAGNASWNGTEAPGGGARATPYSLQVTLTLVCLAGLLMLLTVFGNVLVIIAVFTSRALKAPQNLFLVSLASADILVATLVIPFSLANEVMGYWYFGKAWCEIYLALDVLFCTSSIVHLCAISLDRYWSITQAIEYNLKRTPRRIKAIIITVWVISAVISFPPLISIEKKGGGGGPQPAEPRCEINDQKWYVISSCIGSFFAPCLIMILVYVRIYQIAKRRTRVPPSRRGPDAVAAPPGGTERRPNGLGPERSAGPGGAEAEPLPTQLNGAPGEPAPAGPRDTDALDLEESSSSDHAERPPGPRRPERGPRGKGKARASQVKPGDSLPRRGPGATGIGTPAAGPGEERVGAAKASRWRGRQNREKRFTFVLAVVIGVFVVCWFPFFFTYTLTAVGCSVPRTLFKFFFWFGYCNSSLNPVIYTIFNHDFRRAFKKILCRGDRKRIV

[17] = target: CYP2D6 (Homo sapiens, UniProt P10635); experiment: CYP450, 2D6 Eurofins-Panlabs enzyme assay; conditions: compound concentration 10 uM
[18] = target: ATP-sensitive inward rectifier potassium channel 11 (Cricetulus griseus) (UniProt A0A3L7HHE1); experiment: Inhibition of Potassium Channel [KATP] at 10 µM in the Eurofins-Panlabs radioligand binding assay (Eurofins_assay_265600); conditions: Cricetinae; Compound concentration 10.0 uM
[19] = target: Neutrophil elastase (Homo sapiens) (UniProt P08246); experiment: Peptidase, ELA2 (Neutrophil Elastase 2) Eurofins-Panlabs enzyme assay; conditions: Compound concentration 30.0 uM
[20] = target: Polyunsaturated fatty acid lipoxygenase ALOX15 (Homo sapiens) (UniProt P16050); experiment: Inhibition of Lipoxygenase 15-LO at 10 µM in the Eurofins-Panlabs enzyme assay (Eurofins_assay_138000); conditions: Oryctolagus cuniculus; Compound concentration 10.0 uM
[21] = target: Mitogen-activated protein kinase 3 (Homo sapiens) (UniProt P27361); experiment: Inhibition of Protein Serine/Threonine Kinase, MAPK3 (ERK1) at 10 µM in the Eurofins-Panlabs enzyme assay (Eurofins_assay_171000); conditions: Compound concentration 10.0 uM
Sequence of Mitogen-activated protein kinase 3 (Homo sapiens) (P27361 whole entry): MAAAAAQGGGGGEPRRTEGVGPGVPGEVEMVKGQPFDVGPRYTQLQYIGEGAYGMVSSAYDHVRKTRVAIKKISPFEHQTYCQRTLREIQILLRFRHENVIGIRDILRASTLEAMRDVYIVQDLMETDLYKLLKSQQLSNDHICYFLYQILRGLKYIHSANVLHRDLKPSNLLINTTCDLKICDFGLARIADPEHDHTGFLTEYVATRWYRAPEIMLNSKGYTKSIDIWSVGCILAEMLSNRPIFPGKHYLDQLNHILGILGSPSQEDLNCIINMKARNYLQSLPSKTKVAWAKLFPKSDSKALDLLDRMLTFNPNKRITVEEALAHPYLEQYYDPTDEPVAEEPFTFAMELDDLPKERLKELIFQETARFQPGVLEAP

Sequence of Type-2 angiotensin II receptor (Homo sapiens) (P50052 whole entry): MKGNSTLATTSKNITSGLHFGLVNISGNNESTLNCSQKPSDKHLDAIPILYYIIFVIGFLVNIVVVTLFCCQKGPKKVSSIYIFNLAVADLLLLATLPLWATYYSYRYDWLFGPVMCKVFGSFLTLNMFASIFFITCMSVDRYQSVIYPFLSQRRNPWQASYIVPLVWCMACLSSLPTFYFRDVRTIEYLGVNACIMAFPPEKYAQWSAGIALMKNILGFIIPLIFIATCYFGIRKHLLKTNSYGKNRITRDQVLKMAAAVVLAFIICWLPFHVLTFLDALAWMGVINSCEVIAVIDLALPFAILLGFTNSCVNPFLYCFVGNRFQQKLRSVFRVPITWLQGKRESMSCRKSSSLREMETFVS
Sequence of Polyunsaturated fatty acid lipoxygenase ALOX15 (Homo sapiens) (P16050 whole entry): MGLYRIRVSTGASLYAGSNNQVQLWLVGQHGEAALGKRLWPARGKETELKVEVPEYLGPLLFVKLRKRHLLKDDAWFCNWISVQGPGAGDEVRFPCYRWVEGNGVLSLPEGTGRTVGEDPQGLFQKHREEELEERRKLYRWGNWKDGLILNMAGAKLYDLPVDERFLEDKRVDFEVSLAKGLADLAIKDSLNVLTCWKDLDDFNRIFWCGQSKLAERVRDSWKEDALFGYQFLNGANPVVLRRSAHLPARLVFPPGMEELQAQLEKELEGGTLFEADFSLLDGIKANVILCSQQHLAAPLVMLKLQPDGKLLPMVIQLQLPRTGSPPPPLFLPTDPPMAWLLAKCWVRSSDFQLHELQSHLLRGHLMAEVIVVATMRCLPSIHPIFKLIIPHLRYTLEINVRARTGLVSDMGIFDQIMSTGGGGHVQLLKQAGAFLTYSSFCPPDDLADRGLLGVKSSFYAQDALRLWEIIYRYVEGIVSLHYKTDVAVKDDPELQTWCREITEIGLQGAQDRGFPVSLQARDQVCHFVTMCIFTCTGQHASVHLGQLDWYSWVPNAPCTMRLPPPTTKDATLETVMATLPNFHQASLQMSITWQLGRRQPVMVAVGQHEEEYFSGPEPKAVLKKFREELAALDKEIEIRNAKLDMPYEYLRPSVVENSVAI
Sequence of Glutamate receptor 2 (Homo sapiens) (P42262 whole entry): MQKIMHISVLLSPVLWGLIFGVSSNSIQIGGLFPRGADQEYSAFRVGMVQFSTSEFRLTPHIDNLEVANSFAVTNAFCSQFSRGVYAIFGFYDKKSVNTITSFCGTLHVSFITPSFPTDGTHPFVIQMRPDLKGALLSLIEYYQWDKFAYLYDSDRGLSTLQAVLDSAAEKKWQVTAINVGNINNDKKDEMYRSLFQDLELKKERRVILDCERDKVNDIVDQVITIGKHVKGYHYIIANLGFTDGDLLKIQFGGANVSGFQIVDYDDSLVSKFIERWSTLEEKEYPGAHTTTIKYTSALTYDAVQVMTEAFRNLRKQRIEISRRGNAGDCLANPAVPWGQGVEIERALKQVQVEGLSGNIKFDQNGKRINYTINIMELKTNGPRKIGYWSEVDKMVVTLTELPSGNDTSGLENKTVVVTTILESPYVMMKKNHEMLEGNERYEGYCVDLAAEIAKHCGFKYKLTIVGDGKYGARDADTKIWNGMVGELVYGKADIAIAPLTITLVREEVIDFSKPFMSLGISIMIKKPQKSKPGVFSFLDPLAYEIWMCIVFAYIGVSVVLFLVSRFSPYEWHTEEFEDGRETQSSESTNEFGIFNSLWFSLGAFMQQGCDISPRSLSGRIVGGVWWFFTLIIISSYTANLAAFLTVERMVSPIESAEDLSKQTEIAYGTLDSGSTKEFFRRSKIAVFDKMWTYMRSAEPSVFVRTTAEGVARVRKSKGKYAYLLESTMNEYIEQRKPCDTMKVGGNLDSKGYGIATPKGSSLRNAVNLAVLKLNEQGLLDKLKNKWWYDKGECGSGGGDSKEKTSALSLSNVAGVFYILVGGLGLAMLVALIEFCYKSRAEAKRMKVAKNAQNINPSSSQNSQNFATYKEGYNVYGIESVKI
Sequence of Sodium-dependent noradrenaline transporter (Homo sapiens) (P23975 whole entry): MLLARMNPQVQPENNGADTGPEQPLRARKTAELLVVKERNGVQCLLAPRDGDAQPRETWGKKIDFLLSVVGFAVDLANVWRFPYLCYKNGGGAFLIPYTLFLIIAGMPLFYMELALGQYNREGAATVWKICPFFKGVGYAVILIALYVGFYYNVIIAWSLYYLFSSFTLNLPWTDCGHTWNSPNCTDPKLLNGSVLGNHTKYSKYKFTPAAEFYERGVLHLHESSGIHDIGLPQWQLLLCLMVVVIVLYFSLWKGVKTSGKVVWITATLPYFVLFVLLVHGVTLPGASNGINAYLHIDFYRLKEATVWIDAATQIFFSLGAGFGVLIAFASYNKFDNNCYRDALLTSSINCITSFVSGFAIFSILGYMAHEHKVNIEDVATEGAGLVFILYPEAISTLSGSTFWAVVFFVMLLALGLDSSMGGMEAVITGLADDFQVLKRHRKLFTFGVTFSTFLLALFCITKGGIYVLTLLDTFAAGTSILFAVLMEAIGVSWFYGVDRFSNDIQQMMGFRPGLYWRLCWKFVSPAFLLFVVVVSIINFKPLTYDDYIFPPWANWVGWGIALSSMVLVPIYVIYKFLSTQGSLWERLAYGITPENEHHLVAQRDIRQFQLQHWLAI
Sequence of CYP3A4 (P08684 whole entry): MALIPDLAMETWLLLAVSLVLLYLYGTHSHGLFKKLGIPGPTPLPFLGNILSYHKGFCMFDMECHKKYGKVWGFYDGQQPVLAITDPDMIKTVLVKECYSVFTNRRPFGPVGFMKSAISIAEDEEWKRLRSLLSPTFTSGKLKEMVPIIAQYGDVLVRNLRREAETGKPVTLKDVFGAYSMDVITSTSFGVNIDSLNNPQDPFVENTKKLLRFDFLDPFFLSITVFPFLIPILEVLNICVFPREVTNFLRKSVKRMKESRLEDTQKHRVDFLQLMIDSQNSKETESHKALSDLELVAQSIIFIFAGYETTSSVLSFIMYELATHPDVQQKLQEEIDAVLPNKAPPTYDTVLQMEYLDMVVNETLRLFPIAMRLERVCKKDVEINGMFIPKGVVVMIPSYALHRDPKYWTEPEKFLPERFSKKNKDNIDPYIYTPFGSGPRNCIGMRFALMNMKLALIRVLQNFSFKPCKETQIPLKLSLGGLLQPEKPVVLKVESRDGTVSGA
Sequence of Mitogen-activated protein kinase 14 (Homo sapiens) (Q16539 whole entry): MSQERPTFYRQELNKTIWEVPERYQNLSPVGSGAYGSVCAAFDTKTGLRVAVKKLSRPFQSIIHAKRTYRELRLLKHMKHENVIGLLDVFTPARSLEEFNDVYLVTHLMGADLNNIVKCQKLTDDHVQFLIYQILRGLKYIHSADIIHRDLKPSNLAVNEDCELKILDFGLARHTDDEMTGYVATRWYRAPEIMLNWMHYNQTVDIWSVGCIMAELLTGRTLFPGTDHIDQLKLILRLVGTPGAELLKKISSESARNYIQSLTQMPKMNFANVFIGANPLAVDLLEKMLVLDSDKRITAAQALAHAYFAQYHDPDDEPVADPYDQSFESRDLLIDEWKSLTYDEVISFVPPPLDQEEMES
Sequence of Histamine H1 receptor (Homo sapiens) (P35367 whole entry): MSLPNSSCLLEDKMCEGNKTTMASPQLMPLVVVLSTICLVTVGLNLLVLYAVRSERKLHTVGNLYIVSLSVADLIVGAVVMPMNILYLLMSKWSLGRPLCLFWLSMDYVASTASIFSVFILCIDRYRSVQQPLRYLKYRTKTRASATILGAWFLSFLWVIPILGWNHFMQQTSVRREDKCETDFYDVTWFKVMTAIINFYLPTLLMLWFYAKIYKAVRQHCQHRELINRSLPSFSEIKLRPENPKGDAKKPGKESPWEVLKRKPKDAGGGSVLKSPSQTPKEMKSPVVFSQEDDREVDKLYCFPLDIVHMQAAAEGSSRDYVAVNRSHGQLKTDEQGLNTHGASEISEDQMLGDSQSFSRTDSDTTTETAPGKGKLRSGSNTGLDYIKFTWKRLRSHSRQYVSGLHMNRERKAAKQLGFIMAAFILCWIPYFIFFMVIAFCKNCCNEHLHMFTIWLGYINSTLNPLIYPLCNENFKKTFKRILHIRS
Sequence of Sigma non-opioid intracellular receptor 1 (Homo sapiens) (Q99720 whole entry): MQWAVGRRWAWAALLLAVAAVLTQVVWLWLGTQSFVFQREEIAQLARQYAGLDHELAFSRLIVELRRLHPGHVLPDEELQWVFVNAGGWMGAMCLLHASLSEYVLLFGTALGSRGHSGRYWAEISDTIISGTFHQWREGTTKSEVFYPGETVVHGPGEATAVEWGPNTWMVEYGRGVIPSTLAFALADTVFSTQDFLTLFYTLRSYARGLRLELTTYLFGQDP
Sequence of Melanocortin receptor 5 (Homo sapiens) (P33032 whole entry): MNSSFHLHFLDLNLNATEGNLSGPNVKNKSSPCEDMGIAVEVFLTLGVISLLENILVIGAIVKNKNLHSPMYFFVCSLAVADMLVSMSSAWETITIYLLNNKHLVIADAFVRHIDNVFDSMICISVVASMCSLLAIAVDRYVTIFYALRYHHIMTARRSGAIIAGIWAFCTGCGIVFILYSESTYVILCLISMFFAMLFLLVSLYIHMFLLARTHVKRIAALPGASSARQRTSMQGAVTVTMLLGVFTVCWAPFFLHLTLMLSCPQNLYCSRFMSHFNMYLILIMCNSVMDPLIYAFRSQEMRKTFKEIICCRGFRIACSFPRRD

SMILES: O=C(NCc1ncc(C(F)(F)F)cc1Cl)c1ccc2c(c1)C1(CCS(=O)(=O)CC1)[C@H](C1CC1)N2S(=O)(=O)c1ccc(F)cc1 [BAY-784]
- inhibition [1]: -5%
- inhibition [2]: 9%
- inhibition [3]: 50%
- inhibition [4]: 27%
- inhibition at 10 µM [5]: 38% (not active)
- inhibition [6]: 14%
- inhibition [7]: 6%
- inhibition [8]: 20%
- inhibition [9]: 9%
- inhibition [10]: 19%
- inhibition [11]: 15%
- inhibition [12]: 2%
- inhibition [13]: -5%
- inhibition [14]: 11%
- inhibition [15]: -8.25%
- inhibition [16]: -1%
- inhibition at 10 µM [17]: 4% (not active)
- inhibition [18]: 0%
- inhibition [19]: 4%
- inhibition [20]: 11%
- inhibition [21]: 87%

From ChEMBL document CHEMBL4507266, “Data for DCP probe BAY-784” (2021)
